In patent US9724388B2, “FGF-18 compound dosing regimen” (MERCK PATENT GMBH, priority 2014, dated 2017):
Where two headings read alike, the source gives them in different places.

Columns and labels:
[1] = test system: medial meniscal tear in the right knee joint; assay type: in vivo, rat; details: for swelling scores vs vehicle controls: days 24-29, 31, and 36-43
Protocol: Male Lewis rats underwent surgery to induce a medial meniscal tear in the right knee joint. Animals were dosed i.a. with FGF-18 (10 μg/joint) on days 21, 28, and 35 and dosed orally with diclofenac (either 1 mg/kg or 3 mg/kg) or vehicle on days 21-23, 28-30, and 35-37, then terminated on day 42 or day 63. Serum was collected and evaluated for alpha 2 macroglobulin (α2MG) levels on days −3, 21, 42, and 63. α2MG is an inflammation serum biomarker. The link between α2MG and inflammation has already been shown (Kuribayashi et al., 2013).

OA symptoms = details: Chevalier et al., 2009, cited from earlier work
[2] = test system: Primary articular porcine chondrocytes; test: Porcine chondrocyte proliferation with or without IL1α challenge; assay type: cell-based, pig; details: for restoration of rhFGF-18 proliferative activity in IL1α-challenged chondrocytes: anakinra 100 ng/mL with rhFGF-18 100 ng/mL, IL1α 10 ng/mL, direct and delayed treatments
Protocol: Porcine chondrocytes were isolated from the cartilage of a femoral head of a pig hip (pigs were approximately one year old). After dissection of the joints, the cartilage was harvested and digested 45 minutes with collagenase 0.25% (1/10 dilution of collagenase NBG4 2.5% in HAM's F12) at room temperature. The loosened cells were discarded and the cartilage further digested overnight with collagenase 0.1% (1/25 dilution of collagenase NBG4 2.5% in HAM's F12) at 37° C. to extract the chondrocytes. For this study, the chondrocytes were cultured in monolayer.
Primary articular porcine chondrocytes were stimulated or not with 10 ng/mL IL1α and were either treated immediately or 6 hours later with anakinra 100 ng/mL and/or trFGF-18 100 ng/mL. Each condition was performed in 4 or 6-plicates. As a control, cells were also cultured with anakinra alone, trFGF-18 alone or in the absence of any treatment (medium).
Pre-culture: After cell isolation porcine chondrocytes were inoculated at 20,000 cells/cm^2 and cultivated for one week in complete HAM's F12. Cells were then harvested with accutase, counted and used as described below.
For cells treated directly with anakinra: Chondrocytes were inoculated in a 24-well plate at 15,000 cells/well in 0.5 mL of complete HAM's F12. Then 0.25 mL of trFGF-18 400 ng/mL and/or 0.25 mL of anakinra 400 ng/mL were added to the cells. In the challenged samples, 10 μL of IL1α at 1,000 ng/mL were also added to the cells. trFGF-18, anakinra and IL1α were all diluted in complete HAM's F12. The final volume in the culture well was adjusted at 1 mL with complete HAM's F12. Final concentrations were 10 ng/mL IL1α, 100 ng/mL trFGF-18 and 100 ng/mL anakinra and the total culture time was eight days. A complete medium change was performed after four days. N=4.
For cells treated with anakinra and trFGF-18 6 hours after the IL1α challenge: Chondrocytes were inoculated in a 24-well plate at 15,000 cells/well in 1 mL of complete HAM's F12 containing or not containing IL1α 10 ng/mL. After 6 hours the medium was removed and replaced with 0.25 mL trFGF-18 400 ng/mL and/or 0.25 mL of anakinra 400 ng/mL. In the challenged samples, 0.25 mL of IL1α at 40 ng/mL was also added to the cells. trFGF-18, anakinra and IL1α were all diluted in complete HAM's F12. The final volume in the culture well was adjusted at 1 mL with complete HAM's F12. Final concentrations were 10 ng/mL IL1α, 100 ng/mL trFGF-18 and 100 ng/mL anakinra and the total culture time was eight days. A complete medium change was performed after four days. N=6.
After eight days of culture, cells were harvested with accutase and resulting cell suspensions were analyzed for cell concentration and cell viability with a ViCell™ cell analyzer (from Beckman Coulter). Statistical analysis consisted in a 1-way ANOVA followed by a Dunnett post-hoc analysis.

RA patients = details: cited from earlier work

Compound	knee caliper measurements ([1]; diclofenac 1 mg/kg orally with FGF-18, any other time point)	knee caliper measurements ([1]; diclofenac 1 mg/kg orally with FGF-18, day 42)	swelling scores vs vehicle controls ([1]; diclofenac 1 mg/kg orally with FGF-18)	knee caliper measurements ([1]; diclofenac 3 mg/kg orally with FGF-18, any other time point)	knee caliper measurements ([1]; diclofenac 3 mg/kg orally with FGF-18, day 42)	swelling scores vs vehicle controls ([1]; diclofenac 3 mg/kg orally with FGF-18)	knee swelling (clinical observations and caliper measurements) ([1]; diclofenac 1 or 3 mg/kg with FGF-18)	improvements in OA symptoms compared with placebo (OA symptoms)	pain versus placebo in OA (OA symptoms; anakinra 150 mg)	restoration of rhFGF-18 proliferative activity in IL1α-challenged chondrocytes [2]	restoration of rhFGF-18 proliferative activity in IL1α-challenged chondrocytes ([2]; listed as Anakinra)	effect on chondrocyte proliferation ([2]; anakinra alone, 100 ng/mL)	joint damage in RA patients (RA patients; Bresnihan, 2002, St. Clair)	pain in RA patients (RA patients; Mertens et al., 2009)
O=C(O)Cc1ccccc1Nc1c(Cl)cccc1Cl [diclofenac, 2-(2,6-dichloranilino) phenylacetic acid]	not significantly affected	significantly reduced	significantly reduced	not significantly affected	significantly reduced	significantly reduced	significantly reduced							
anakinra: recombinant, nonglycosylated form of human interleukin-1 receptor antagonist (IL-1Ra), SEQ ID NO: 3								not significantly associated	a tendency toward pain reduction	fully block	fully restore	no effect	reduction in frequency and severity of joint damage	pain reduction
